Reference: article PMC4414788 (Chemico-biological interactions, 2015)

Legend:
ALDH2 = molecular target: T1, ALDH2 (Homo sapiens, UniProt P05091); assay: propionaldehyde dehydrogenase assay; assay type: biochemical; conditions: read-out: ALDH2
T1 sequence (P05091 18-517): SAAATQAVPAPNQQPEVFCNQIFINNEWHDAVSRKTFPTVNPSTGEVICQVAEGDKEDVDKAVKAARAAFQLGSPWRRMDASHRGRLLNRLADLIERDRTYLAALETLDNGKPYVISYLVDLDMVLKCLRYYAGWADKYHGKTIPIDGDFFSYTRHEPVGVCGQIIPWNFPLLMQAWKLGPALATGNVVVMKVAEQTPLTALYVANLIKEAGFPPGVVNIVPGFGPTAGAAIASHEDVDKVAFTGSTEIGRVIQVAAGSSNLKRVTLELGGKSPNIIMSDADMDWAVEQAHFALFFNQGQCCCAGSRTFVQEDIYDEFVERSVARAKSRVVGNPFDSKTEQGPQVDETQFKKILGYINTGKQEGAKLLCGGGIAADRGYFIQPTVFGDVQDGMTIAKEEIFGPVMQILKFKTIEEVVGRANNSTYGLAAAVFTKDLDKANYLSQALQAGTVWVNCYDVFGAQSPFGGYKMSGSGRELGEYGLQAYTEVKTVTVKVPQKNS

ALDH1A1 [1] = molecular target: T2, ALDH1A1 (Homo sapiens, UniProt P00352, N121S); assay: propionaldehyde dehydrogenase assay; assay type: biochemical; conditions: read-out: ALDH1A1 ^*
T2 sequence (P00352 2-501 N121S): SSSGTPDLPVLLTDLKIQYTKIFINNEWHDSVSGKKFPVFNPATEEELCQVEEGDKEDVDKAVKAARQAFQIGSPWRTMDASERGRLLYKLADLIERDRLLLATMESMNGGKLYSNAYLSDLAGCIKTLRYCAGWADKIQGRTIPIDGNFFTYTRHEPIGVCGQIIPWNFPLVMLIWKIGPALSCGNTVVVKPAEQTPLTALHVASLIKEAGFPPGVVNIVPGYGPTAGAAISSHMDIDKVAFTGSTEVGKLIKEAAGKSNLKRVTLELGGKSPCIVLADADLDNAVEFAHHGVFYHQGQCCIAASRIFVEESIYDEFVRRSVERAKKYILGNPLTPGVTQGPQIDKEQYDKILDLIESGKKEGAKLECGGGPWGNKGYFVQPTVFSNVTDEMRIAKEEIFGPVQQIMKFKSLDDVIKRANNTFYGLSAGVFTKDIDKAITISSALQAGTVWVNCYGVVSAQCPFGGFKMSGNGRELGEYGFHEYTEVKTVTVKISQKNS

ALDH3A1 = molecular target: T3, ALDH3A1 (Homo sapiens, UniProt P30838); assay: biochemical; conditions: read-out: % of control remaining
T3 sequence (P30838 1-453): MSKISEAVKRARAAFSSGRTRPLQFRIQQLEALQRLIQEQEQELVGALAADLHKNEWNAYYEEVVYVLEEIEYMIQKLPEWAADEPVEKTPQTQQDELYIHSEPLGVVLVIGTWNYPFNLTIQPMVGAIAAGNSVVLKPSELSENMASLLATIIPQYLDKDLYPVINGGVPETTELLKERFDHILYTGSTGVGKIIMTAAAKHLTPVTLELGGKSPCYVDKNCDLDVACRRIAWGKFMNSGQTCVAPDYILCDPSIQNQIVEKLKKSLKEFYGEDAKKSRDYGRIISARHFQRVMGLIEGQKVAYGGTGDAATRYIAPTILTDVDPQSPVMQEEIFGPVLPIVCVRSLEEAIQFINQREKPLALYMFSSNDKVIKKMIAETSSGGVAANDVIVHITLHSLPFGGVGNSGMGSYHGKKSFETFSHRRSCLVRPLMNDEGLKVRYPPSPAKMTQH

ALDH1A2 = molecular target: T4, ALDH1A2 (Homo sapiens, UniProt O94788); assay: propionaldehyde dehydrogenase assay; assay type: biochemical; conditions: read-out: % inhibition at 10 μM
T4 sequence (O94788 1-518): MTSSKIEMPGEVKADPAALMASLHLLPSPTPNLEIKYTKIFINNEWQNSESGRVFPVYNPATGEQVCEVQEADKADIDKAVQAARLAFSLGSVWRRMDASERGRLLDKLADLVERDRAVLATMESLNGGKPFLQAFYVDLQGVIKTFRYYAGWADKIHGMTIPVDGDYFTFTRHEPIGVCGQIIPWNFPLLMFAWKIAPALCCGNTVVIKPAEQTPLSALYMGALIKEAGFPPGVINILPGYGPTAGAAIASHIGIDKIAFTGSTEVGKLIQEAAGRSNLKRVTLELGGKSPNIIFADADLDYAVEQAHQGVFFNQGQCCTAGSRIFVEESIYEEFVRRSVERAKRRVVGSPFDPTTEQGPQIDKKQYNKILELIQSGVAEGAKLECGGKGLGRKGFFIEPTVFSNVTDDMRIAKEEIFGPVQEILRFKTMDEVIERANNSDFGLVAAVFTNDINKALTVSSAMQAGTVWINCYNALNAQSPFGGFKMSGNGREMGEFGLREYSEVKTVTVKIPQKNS

ALDH1B1 = molecular target: T5, ALDH1B1 (Homo sapiens, UniProt P30837); assay: propionaldehyde dehydrogenase assay; assay type: biochemical; conditions: read-out: % inhibition at 10 μM
T5 sequence (P30837 18-517): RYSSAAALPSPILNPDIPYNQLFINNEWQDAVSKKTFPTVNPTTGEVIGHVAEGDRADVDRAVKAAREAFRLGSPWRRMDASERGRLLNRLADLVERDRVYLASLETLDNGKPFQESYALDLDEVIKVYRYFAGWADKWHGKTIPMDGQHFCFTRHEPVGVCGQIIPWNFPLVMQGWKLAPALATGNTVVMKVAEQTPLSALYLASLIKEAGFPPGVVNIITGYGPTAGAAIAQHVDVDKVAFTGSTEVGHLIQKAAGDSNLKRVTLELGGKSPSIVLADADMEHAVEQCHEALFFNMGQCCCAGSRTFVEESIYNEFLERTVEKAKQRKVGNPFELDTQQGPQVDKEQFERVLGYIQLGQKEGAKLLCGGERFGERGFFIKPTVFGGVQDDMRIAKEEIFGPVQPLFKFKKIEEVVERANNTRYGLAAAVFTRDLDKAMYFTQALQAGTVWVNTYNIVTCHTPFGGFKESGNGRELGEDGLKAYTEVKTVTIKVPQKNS

ALDH1A3 = molecular target: T6, ALDH1A3 (Homo sapiens, UniProt P47895); assay: propionaldehyde dehydrogenase assay; assay type: biochemical; conditions: read-out: % inhibition at 10 μM
T6 sequence (P47895 2-512): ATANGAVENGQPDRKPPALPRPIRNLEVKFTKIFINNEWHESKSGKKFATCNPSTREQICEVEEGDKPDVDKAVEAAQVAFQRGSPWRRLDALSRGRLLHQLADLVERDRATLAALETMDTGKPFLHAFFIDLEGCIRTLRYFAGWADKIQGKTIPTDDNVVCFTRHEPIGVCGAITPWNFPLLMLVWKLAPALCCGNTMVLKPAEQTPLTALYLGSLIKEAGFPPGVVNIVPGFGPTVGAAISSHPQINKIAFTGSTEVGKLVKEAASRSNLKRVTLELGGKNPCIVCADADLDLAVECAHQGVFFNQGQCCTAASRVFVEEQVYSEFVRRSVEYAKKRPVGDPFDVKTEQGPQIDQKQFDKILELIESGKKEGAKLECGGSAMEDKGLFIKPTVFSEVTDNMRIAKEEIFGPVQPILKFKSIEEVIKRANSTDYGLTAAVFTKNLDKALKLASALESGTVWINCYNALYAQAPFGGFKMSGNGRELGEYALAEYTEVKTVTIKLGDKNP

ALDH1A1 [2] = molecular target: T2, ALDH1A1; assay: biochemical; conditions: read-out: % of control remaining

activity at 10 µM (ALDH2) [%]	remaining activity at 10 µM (ALDH3A1) [%]	remaining activity at 10 µM (ALDH1A1 [2]) [%]	SMILES	activity at 10 µM (ALDH1A1 [1]) [%]	inhibition at 10 µM (ALDH1A2) [%]	inhibition at 10 µM (ALDH1B1) [%]	inhibition at 10 µM (ALDH1A3) [%]
10.3			COC(=O)C(C)Oc1ccc2c(C)cc(=O)oc2c1 (centres unmarked) [2BS4, methyl-2-[(4-methyl-2-oxo-2H-chromen-7-yl)oxy]propanoate]				
7.6	87.6		CCCc1c(C)c2cc3c(C)coc3cc2oc1=O [2CB5, 3,5-dimethyl-6-propylfuro[3,2-g]chromen-7-one]	58.6			
	87.8	89.3	Cc1oc2cc3oc(=O)c(C)c(C)c3cc2c1C [2P4, 2,3,5,6-tetramethylfuro[3,2-g]chromen-7-one]				

SMILES	activity at 10 µM (ALDH2) [%]	remaining activity at 10 µM (ALDH3A1) [%]	remaining activity at 10 µM (ALDH1A1 [2]) [%]	activity at 10 µM (ALDH1A1 [1]) [%]	inhibition at 10 µM (ALDH1A2) [%]	inhibition at 10 µM (ALDH1B1) [%]	inhibition at 10 µM (ALDH1A3) [%]
CCCc1c(C)c2cc3c(C)c(C)oc3cc2oc1=O [2P3, 2,3,5-trimethyl-6-propyl-7H-furo[3,2-g]chromen-7-one]	1.5			40.8	> 60	> 60	> 60
